For the experiment, the target named is T1, TrkA (Homo sapiens, UniProt P04629).
T1 construct: aa 441-796; His; purchased Invitrogen PV3144
T1 sequence (P04629 441-796): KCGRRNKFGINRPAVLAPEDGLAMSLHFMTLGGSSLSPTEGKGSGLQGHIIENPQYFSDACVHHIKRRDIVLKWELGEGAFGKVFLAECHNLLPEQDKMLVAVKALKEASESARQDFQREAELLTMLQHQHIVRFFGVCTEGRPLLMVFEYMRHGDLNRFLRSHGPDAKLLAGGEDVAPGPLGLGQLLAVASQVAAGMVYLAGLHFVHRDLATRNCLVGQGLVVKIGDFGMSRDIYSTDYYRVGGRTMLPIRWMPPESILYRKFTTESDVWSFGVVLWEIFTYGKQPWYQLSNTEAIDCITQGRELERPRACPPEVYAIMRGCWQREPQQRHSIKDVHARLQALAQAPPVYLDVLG
Put plainly: Isolated TRK enzyme assay (HTRF KinEASE-TK kit), PV3144 TrkA enzyme assay. Type of experiment: biochemical. Conditions: PV3144 TrkA enzyme assay, recombinant His-tagged cytoplasmic domain aa 441-796, 4 nM enzyme, 40 uM ATP; arithmetic mean where more than one reading; read-out: Trka enzyme (IC50). Here is the method:
Isolated TRK Enzyme assays use the HTRF KinEASE-TK kit (Cisbio Cat#62TK0PEJ) with recombinant His-tagged cytoplasmic domains of each TRK receptor sourced from Invitrogen (see table below). This activity-assay measures the phosphorylation of tyrosine residues within a substrate from the HTRF kit which has been validated by Cisbio for a variety of tyrosine kinases including the TRK receptors.
0.5 mM stock solutions of test compounds are prepared and serially diluted in 100% DMSO. A standard curve using the compound of Example 135 disclosed in WO2005/116035 of 150 uM is also prepared on each test plate. High percentage effect (HPE) is defined by 150 uM (using the compound of Example 135 as disclosed in WO2005/116035) and 0% effect (ZPE) is defined by 100% DMSO. Greiner low volume black plates containing 0.2 ul of serially diluted compound, standard and HPE/ZPE are created using the Bravo nanolitre dispenser.
1X enzyme buffer is prepared from 5X Enzymatic Buffer from the Cisbio KinEASE TK kit using MilliQ water. The buffer is then supplemented with 10 mM MgCl and 2 mM DTT (both from Sigma). In the case of TRKB, the buffer is also supplemented with 125 nM Supplement Enzymatic Buffer (SEB) from the Cisbio kit.
2X FAC of enzyme and 2X FAC ATP diluted in 1X complete enzyme buffer is incubated at room temperature for 20 minutes to preactivate the enzyme. Following this preactivation step, 5 ul/well of enzyme+ATP mix is added using a Multidrop Micro to the assay plate, spotted with 0.2 ul 100% DMSO compound. This is left for 20 mins at room temperature before adding 5 ul of 2 uM TK-substrate-Biotin (from the Cisbio kit) diluted in 1X enzyme buffer (1 uM FAC) using the Multidrop Micro. The reaction is incubated at room temperature for the optimized assay reaction time (see table). The reaction is stopped by adding 10 ul/well HTRF Detection Buffer containing 0.25 uM Streptavidin-XL665 (0.125 uM FAC) and 1:200 TK Antibody-Cryptate using a Multidrop.
After the Detection Reagent addition, plates are covered and incubated at room temperature for 60 minutes. HTRF signal is read using an Envision reader, measured as a ratio of emissions at two different wavelengths, 620 nm and 665 nm. […] Test compound data are expressed as percentage inhibition defined by HPE and ZPE values for each plate. Percentage inhibition in the presence of test compound is plotted against compound concentration on a log scale to determine an IC50 from the resultant sigmoid curve.
Below are TrkA IC50 data generated using the PV3144 TrkA enzyme assay. Where more than one reading was taken, the arithmetic mean is presented.
In the case of `Cc1cc(C(F)(F)F)nn1CC(=O)Nc1ccnc(C(=O)c2cn([C@H](C)CO)c3ncncc23)c1` [Example 21, N-[2-({7-[(2R)-1-hydroxypropan-2-yl]-7H-pyrrolo[2,3-d]pyrimidin-5-yl}carbonyl)pyridin-4-yl]-2-[5-methyl-3-(trifluoromethyl)-1H-pyrazol-1-yl]acetamide], the 50% inhibitory concentration (IC50) worked out at 95.8 nM. Turning to `C[C@H](CO)n1cc(C(=O)c2cc(NC(=O)Cc3ccc(C(F)(F)F)cc3)ccn2)c2cncnc21` [Example 22, N-[2-({7-[(2R)-1-hydroxypropan-2-yl]-7H-pyrrolo[2,3-d]pyrimidin-5-yl}carbonyl)pyridin-4-yl]-2-[4-(trifluoromethyl)phenyl]acetamide], the half-maximal inhibitory concentration (IC50) is 59.5 nM. For `C[C@H](CO)n1cc(C(=O)c2cc(NC(=O)Cc3ccc(C#N)cc3)ccn2)c2cncnc21` [Example 23, 2-(4-cyanophenyl)-N-[2-({7-[(2R)-1-hydroxypropan-2-yl]-7H-pyrrolo[2,3-d]pyrimidin-5-yl}carbonyl)pyridin-4-yl]acetamide], the IC50 was 79.1 nM. With `C[C@@H](CO)n1cc(C(=O)c2cc(NC(=O)Cc3cccc(C(F)(F)F)c3)ccn2)c2cncnc21` [Example 24, N-[2-({7-[(2S)-1-hydroxypropan-2-yl]-7H-pyrrolo[2,3-d]pyrimidin-5-yl}carbonyl)pyridin-4-yl]-2-[3-(trifluoromethyl)phenyl]acetamide] the figure was 59.8 nM; with `C[C@H](CO)n1cc(C(=O)c2cc(NC(=O)Cc3ccc(Cl)cn3)ccn2)c2cncnc21` [Example 25, 2-(5-chloropyridin-2-yl)-N-[2-({7-[(2R)-1-hydroxypropan-2-yl]-7H-pyrrolo[2,3-d]pyrimidin-5-yl}carbonyl)pyridin-4-yl]acetamide], 363 nM. For `C[C@H](CO)n1cc(C(=O)c2cc(NC(=O)Cn3ccc(C(F)(F)F)n3)ccn2)c2cncnc21` [Example 26, N-[2-({7-[(2R)-1-hydroxypropan-2-yl]-7H-pyrrolo[2,3-d]pyrimidin-5-yl}carbonyl)pyridin-4-yl]-2-[3-(trifluoromethyl)-1H-pyrazol-1-yl]acetamide], the half-maximal inhibitory concentration (IC50) was 24.5 nM.

For `C[C@H](CO)n1cc(C(=O)c2cc(NC(=O)Cc3ccc(F)cn3)ccn2)c2cncnc21` [Example 27, 2-(5-fluoropyridin-2-yl)-N-[2-({7-[(2R)-1-hydroxypropan-2-yl]-7H-pyrrolo[2,3-d]pyrimidin-5-yl}carbonyl)pyridin-4-yl]acetamide], the IC50 is 139 nM.

Take `C[C@H](CO)n1cc(C(=O)c2cc(NC(=O)Cc3ccc(Cl)cc3)ccn2)c2cncnc21` [Example 28, 2-(4-chlorophenyl)-N-[2-({7-[(2R)-1-hydroxypropan-2-yl]-7H-pyrrolo[2,3-d]pyrimidin-5-yl}carbonyl)pyridin-4-yl]acetamide]: the IC50 is 111 nM.

`CC(C)c1cn(CC(=O)Nc2ccnc(C(=O)c3cn([C@@H](C)CO)c4ncncc34)c2)nn1` [Example 29, N-[2-({7-[(2S)-1-hydroxypropan-2-yl]-7H-pyrrolo[2,3-d]pyrimidin-5-yl}carbonyl)pyridin-4-yl]-2-[4-(propan-2-yl)-1H-1,2,3-triazol-1-yl]acetamide]: the concentration for half-maximal inhibition (IC50) was 74.2 nM. For `C[C@@H](CO)n1cc(C(=O)c2cc(NC(=O)Cn3cc(C4CC4)nn3)ccn2)c2cncnc21` [Example 30, 2-(4-cyclopropyl-1H-1,2,3-triazol-1-yl)-N-[2-({7-[(2S)-1-hydroxypropan-2-yl]-7H-pyrrolo[2,3-d]pyrimidin-5-yl}carbonyl)pyridin-4-yl]acetamide], the IC50 is 89.7 nM. Take `C[C@@H](CO)n1cc(C(=O)c2cc(NC(=O)Cn3cc(C(F)(F)F)nn3)ccn2)c2cncnc21` [Example 31, N-[2-({7-[(2S)-1-hydroxypropan-2-yl]-7H-pyrrolo[2,3-d]pyrimidin-5-yl}carbonyl)pyridin-4-yl]-2-[4-(trifluoromethyl)-1H-1,2,3-triazol-1-yl]acetamide]: the 50% inhibitory concentration (IC50) turned out to be 78.1 nM. As to `Cc1cc(C(F)(F)F)nn1CC(=O)Nc1cc(C(=O)c2cn(C(C)C)c3ncncc23)ccc1C#N` [Example 35, N-(2-cyano-5-{[7-(propan-2-yl)-7H-pyrrolo[2,3-d]pyrimidin-5-yl]carbonyl}phenyl)-2-[5-methyl-3-(trifluoromethyl)-1H-pyrazol-1-yl]acetamide], the IC50 stood at 10.9 nM. As to `CC(C)(C)n1cc(C(=O)c2cc(NC(=O)Cn3cc(C4CC4)nn3)ccn2)c2cncnc21` [Example 36, N-[2-(7-tert-Butyl-7H-pyrrolo[2,3-d]pyrimidine-5-carbonyl)-pyridin-4-yl]-2-(4-cyclopropyl-[1,2,3]triazol-1-yl)-acetamide], the IC50 is 51.9 nM. Take `CC(C)(C)n1cc(C(=O)c2cc(NC(=O)Cc3ccc(F)cn3)ccn2)c2cncnc21` [Example 37, N-{2-[(7-tert-butyl-7H-pyrrolo[2,3-d]pyrimidin-5-yl)carbonyl]pyridin-4-yl}-2-(5-fluoropyridin-2-yl)acetamide]: the concentration for half-maximal inhibition (IC50) is 21 nM. `CC(C)(C)n1cc(C(=O)c2cc(NC(=O)Cc3cccc(S(C)(=O)=O)c3)ccn2)c2cncnc21` [Example 38, N-{2-[(7-tert-butyl-7H-pyrrolo[2,3-d]pyrimidin-5-yl)carbonyl]pyridin-4-yl}-2-[3-(methylsulfonyl)phenyl]acetamide]: the concentration for half-maximal inhibition (IC50) is 9.61 nM. With `CC(C)(C)n1cc(C(=O)c2cc(NC(=O)Cc3ccc(Cl)cn3)ccn2)c2cncnc21` [Example 39, N-{2-[(7-tert-butyl-7H-pyrrolo[2,3-d]pyrimidin-5-yl)carbonyl]pyridin-4-yl}-2-(5-chloropyridin-2-yl)acetamide], the IC50 was 5.27 nM.

`CC(C)(C)n1cc(C(=O)c2cc(NC(=O)Cn3ccc(C4CC4)n3)ccn2)c2cncnc21` [Example 40, N-{2-[(7-tert-butyl-7H-pyrrolo[2,3-d]pyrimidin-5-yl)carbonyl]pyridin-4-yl}-2-(3-cyclopropyl-1H-pyrazol-1-yl)acetamide]: the IC50 is 8.38 nM.

`CC(C)(C)n1cc(C(=O)c2cc(NC(=O)Cn3ccc(C(F)(F)F)n3)ccn2)c2cncnc21` [Example 41, N-{2-[(7-tert-butyl-7H-pyrrolo[2,3-d]pyrimidin-5-yl)carbonyl]pyridin-4-yl}-2-[3-(trifluoromethyl)-1H-pyrazol-1-yl]acetamide]: the IC50 was found to be 10.7 nM. With `CC(C)(C)n1cc(C(=O)c2cc(NC(=O)Cc3ccc(Cl)cc3)ccn2)c2cncnc21` [Example 42, N-{2-[(7-tert-butyl-7H-pyrrolo[2,3-d]pyrimidin-5-yl)carbonyl]pyridin-4-yl}-2-(4-chlorophenyl)acetamide] the figure was 11.5 nM; with `CC(C)(C)n1cc(C(=O)c2cc(NC(=O)Cc3ccc(F)cc3)ccn2)c2cncnc21` [Example 43, N-{2-[(7-tert-butyl-7H-pyrrolo[2,3-d]pyrimidin-5-yl)carbonyl]pyridin-4-yl}-2-(4-fluorophenyl)acetamide], 15.7 nM; with `CC(C)n1cc(C(=O)c2ccnc(NC(=O)Cc3ccc(Cl)cc3)c2)c2cnc(N)nc21` [Example 44, N-[4-(2-Amino-7-isopropyl-7H-pyrrolo[2,3-d]pyrimidine-5-carbonyl)-pyridin-2-yl]-2-(4-chloro-phenyl)-acetamide], 10.2 nM. With `CC(C)n1cc(C(=O)c2ccnc(NC(=O)Cc3ccc(C#N)cc3)c2)c2cnc(N)nc21` [Example 45, N-(4-{[2-amino-7-(propan-2-yl)-7H-pyrrolo[2,3-d]pyrimidin-5-yl]carbonyl}pyridin-2-yl)-2-(4-cyanophenyl)acetamide] the figure was 36.1 nM.

The values are drawn from patent US20150218172A1, “Pyrrolo[2,3-D]Pyrimidine Tropomyosin-Related Kinase Inhibitors” (PFIZER LIMITED, priority 2012, published 2015).
